Measurements published in patent US7626075B2, “Growth of foreign cells in fetal animals facilitated by conditional and selective destruction of native host cells” (priority 2002, dated 2009).
Like-named read-outs stand apart in the source and are kept apart here.

Key:
[1] = test system: pancreatic islets; conditions: injected into fetal animals; cited from earlier work
[2] = test system: pancreatic islets; conditions: injected into fetal animals; cited from earlier work; remark: listed apart in the source
[3] = test system: hepatocytes of adult transgenic mice; conditions: administered to adult transgenic mice; cited from earlier work
[4] = test system: fetal mice heterozygous for thymidine kinase under the albumin promoter; conditions: for fetal hepatocyte injury (histology): 14 days gestation
Source text: The suicide gene product preferably is expressed in the appropriate tissue of the fetal host mammal at a level sufficient to be sensitive to a prodrug. The optimal dose of a prodrug depends on the prodrug, the particular suicide gene, the level of suicide gene expression in the target cells, zygosity of the fetal mammal, route of administration, and placental transport. Optimal doses can readily be determined by administering increasing doses of the prodrug to the pregnant mammal, assessing the effect on the target cells using standard pathology methods and assessing the effect on fetal survival using ultrasound and pathology techniques. The optimal dose would produce significant cell injury (>20%) with a minimum of fetal deaths (<15%).
Transgenic mice were produced with the FVB strain containing the mutated thymidine kinase transgene under the albumin promoter. […] These males were bred with non-transgenic FVB mice. At 14 days gestation, gancyclovir (0 to 100 mg/kg body weight) was injected intravenously into the pregnant mice. Tissues from the mothers and fetuses were analyzed by histology.

[5] = test system: Huh-7 cells stably transfected with AlbxTK; experiment: Gancyclovir sensitivity of Huh-7 cells transfected with AlbxTK, propidium iodine FACS; format: cell-based, human
Description: Mouse and human liver cell lines were transfected with constructs containing delta thymidine kinase under the control of either a porcine albumin or α-fetoprotein (AFP) promoter. The mouse cell line (TIB73) is a line of mature hepatocytes in which albumin is expressed. The human cell line (Huh-7) is a line of hepatocellular carcinoma cells that express predominantly AFP. The transfected cells were tested for thymidine kinase by Western blot. To assess the function of mutated thymidine kinase, Huh-7 cells were stably transfected with AlbxTK. Transfected cells were selected using 200 μg/ml Zeocin. Transfected cells as well as untransfected cells were plated in duplicate in 24-well plates at a 40 percent confluence ratio. Gancyclovir was added to the cells in the culture media at different concentrations (4 μM, 8 μM, and 16 μM. […]

[6] = test system: fetal pig liver; experiment: Engraftment of human hepatocytes in fetal pigs after gancyclovir to the sow and human cord blood cell infusion; format: in vivo; conditions: gancyclovir 100 mg/kg i.v. to sow
Description: A non-transgenic sow is bred with a boar that is hemizygous for a mutated thymidine kinase transgene under the control of an albumin promoter. Pregnancy is confirmed with ultrasound and gancyclovir (100 mg/kg, i.v.) is administered at 40 days gestation. A laparotomy is performed at 45 days. Each pig is infused with 10×10^6 human cord blood cells. The piglets are delivered at term by Caesarean section. Blood is drawn from each fetal pig and analyzed for the presence of the suicide transgene using PCR. Serum is tested for the presence of human liver proteins, including albumin, α1-antitrypsin, and serum amyloid A. Sections of liver are frozen and stained for human albumin.

[7] = test system: mice expressing thymidine kinase under the albumin promoter; experiment: Engraftment of human hepatocytes in transgenic mice given gancyclovir after birth; format: in vivo, mouse; conditions: 50 mg/kg on days 1 and 3 at 14 days of age; sacrificed thirty days later
Description: Transgenic mice are produced that express the thymidine kinase gene under the albumin promoter. The male mice are bred with wild type females. Human hepatocytes (2×10^6 per fetal mouse) are injected at 17 days gestation, just prior to delivery. At 14 days of age, the mice are injected with gancyclovir (50 mg/kg) on days 1 and 3 or with the vehicle. Thirty days later, the mice are sacrificed.

[8] = test system: non-transgenic FVB mice (mothers); experiment: Gancyclovir i.v. to pregnant non-transgenic mice, histology of the mothers; format: in vivo, mouse; conditions: any dose (0 to 100 mg/kg i.v.)
Source text: These males were bred with non-transgenic FVB mice.

[9] = test system: untransfected Huh-7 cells; experiment: Gancyclovir effect on untransfected cells, propidium iodine FACS; format: cell-based, human; conditions: gancyclovir 4, 8, 16 μM in culture media
Description: To assess the function of mutated thymidine kinase, Huh-7 cells were stably transfected with AlbxTK. Transfected cells were selected using 200 μg/ml Zeocin. Transfected cells as well as untransfected cells were plated in duplicate in 24-well plates at a 40 percent confluence ratio. Gancyclovir was added to the cells in the culture media at different concentrations (4 μM, 8 μM, and 16 μM. After 5 days, the cells were trypsinized, washed twice in PBS, and stained with propidium iodine for FACS analysis.

| SMILES | effect on fetal pancreatic islets [1] | effect on maternal islets [1] | effect on fetal pancreatic islets [2] | effect on maternal islets [2] | hepatocyte death [3] | fetal survival ([4]; 25 mg/kg intravenous injection to pregnant mouse) | fetal survival ([4]; 50 mg/kg and higher, to pregnant mouse) | fetal hepatocyte injury (histology) ([4]; 50 mg/kg i.v. to pregnant mouse) | fetal hepatocyte injury (histology) ([4]; 100 mg/kg i.v. to pregnant mouse) | injury to the non-liver tissues in the fetal mice ([4]; mouse, in vivo) | placental transfer ([4]; mouse, in vivo, iv) | cell death ([5]; 8 or 16 μM gancyclovir, 5 days) | cell killing ([5]; 7 days) | levels of human albumin, α1-antitrypsin inhibitor and serum amyloid A ([6]; piglets without thymidine kinase transgene) | liver engrafted with human hepatocytes ([6]; pigs with thymidine kinase suicide gene, average) | liver engrafted with human hepatocytes ([6]; pigs without suicide transgene) | engraftment with human hepatocytes versus controls not treated [7] | injury to the hepatocytes of the mother [8] | effect on non-transfected cells [9] |
| --- | --- | --- | --- | --- | --- | --- | --- | --- | --- | --- | --- | --- | --- | --- | --- | --- | --- | --- | --- |
| CN(N=O)C(=O)N[C@H]1C(O)O[C@H](CO)[C@@H](O)[C@@H]1O (mixture of isomers) [streptozotocin] | destroys the pancreatic islets | relatively little effect | destroys the pancreatic islets | relatively little effect |  |  |  |  |  |  |  |  |  |  |  |  |  |  |  |
| Nc1nc(O)c2ncn(COC(CO)CO)c2n1 [gancyclovir] |  |  |  |  | Most of the hepatocytes then died off | the fetal pups survived | the fetal mice died | massive hepatic necrosis | massive hepatic necrosis | no observable injury | crosses the placental barrier | significantly more cell death | entirely killed | less than 1 % of levels seen in humans | 25 % of the total liver | less than 2 % of the total liver | substantially greater engraftment | no observable injury | only a minimal effect |
